From article PMC4869175, “Evidence that phytochrome functions as a protein kinase in plant light signalling” (Nature Communications, 2016)
Each block holds one molecule with its values, some of them ahead of it.

Key:
[1] = target: T1, D422R AsphyA mutant (full-length) (Avena sativa, UniProt P06593, D422R); assay: Photoaffinity labelling with 8-azido-ATP (ATP-binding affinity assay); conditions: 5 μM 8-azido-ATP; labelling of WT AsphyA with 5 μM assumed as 100%
T1 construct: After preparing purified full-length AsphyA mutants; made in house; host or cells: Pichia pastoris GS115
T1 sequence (P06593 whole entry D422R): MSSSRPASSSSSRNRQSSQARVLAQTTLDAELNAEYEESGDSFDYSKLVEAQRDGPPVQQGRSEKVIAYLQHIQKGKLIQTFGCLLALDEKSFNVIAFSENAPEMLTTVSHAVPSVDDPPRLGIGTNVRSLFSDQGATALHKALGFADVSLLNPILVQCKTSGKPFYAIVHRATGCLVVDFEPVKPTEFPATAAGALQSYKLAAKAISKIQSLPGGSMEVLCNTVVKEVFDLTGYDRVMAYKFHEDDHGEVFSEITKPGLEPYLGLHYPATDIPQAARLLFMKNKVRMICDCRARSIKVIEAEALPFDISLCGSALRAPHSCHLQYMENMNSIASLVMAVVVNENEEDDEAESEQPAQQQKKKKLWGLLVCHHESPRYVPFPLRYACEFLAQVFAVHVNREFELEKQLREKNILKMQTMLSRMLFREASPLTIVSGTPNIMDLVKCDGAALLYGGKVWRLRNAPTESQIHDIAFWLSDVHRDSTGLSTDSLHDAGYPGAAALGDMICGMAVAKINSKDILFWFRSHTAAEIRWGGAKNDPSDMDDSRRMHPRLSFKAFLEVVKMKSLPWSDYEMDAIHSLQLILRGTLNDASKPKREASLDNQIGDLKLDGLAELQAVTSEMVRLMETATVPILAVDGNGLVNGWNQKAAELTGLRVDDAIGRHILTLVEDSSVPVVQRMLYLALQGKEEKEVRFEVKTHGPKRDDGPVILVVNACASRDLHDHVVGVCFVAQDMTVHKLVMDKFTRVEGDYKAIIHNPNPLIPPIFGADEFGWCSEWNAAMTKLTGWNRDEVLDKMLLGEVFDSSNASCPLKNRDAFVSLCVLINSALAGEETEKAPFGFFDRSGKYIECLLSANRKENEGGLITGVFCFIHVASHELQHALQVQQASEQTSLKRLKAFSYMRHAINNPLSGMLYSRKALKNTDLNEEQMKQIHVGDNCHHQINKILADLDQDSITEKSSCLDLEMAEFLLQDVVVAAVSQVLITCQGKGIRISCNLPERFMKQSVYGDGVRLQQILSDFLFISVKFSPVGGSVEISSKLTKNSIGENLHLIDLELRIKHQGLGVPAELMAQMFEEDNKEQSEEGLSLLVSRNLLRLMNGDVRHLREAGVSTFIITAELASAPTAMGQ
Description: (§1) Figure 4 Phosphorylation analyses of AsphyA mutants with reduced kinase activity. (a) Kinase activity assays of the AsphyA mutants. In all, 1.0 μg of GST/strep-fused PIF3 (∼0.3 μM) was added as a substrate in reaction mixtures with 1.0 μg of either full-length WT or a mutant (K411L, T418D or D422R) AsphyA protein (∼0.2 μM). (b) Protein–protein interaction analysis between PIF3 and the AsphyA kinase mutants. GST was included as a negative control. (c) ATP-binding affinity assays of AsphyA kinase mutants using photoaffinity labelling with 8-azido-ATP. 1.0 μg of full-length AsphyA protein (∼80 nM) was labelled with the indicated concentrations of 8-azido-ATP. The percentages of 8-azido-ATP labeling were obtained where the labelling of WT AsphyA with 5 μM azido-ATP was assumed as 100%. Error bars represent s.d. from three independent measurements.
(§2) To investigate ATP-binding to AsphyA proteins, photoaffinity labelling experiments were carried out using 8-N3-ATP-biotin-long chain-hydrazone (8-azido-ATP), which were purchased from Affinity Labeling Technologies, Inc. Purified phytochrome proteins (1.0 μg) were pre-incubated for 30 min on ice in 50 μl of photoaffinity labelling buffer (20 mM Tris-HCl, pH 7.0, 2 mM EDTA, 2 mM MgCl2 and 150 μM ATP), and then 8-azido-ATP was applied with indicated concentrations. […]
(§3) Supplementary Figure 15. […] Full-length wild-type and mutant AsphyA proteins were labeled with the indicated concentrations of 8-azido-ATP, and the azido-ATP-labeled proteins were detected with avidin-HRP (upper panels).
(§4) Amounts of AsphyA proteins (ca. 1.0 µg) used in these reactions are shown as loading controls in lower panels, which were analyzed using western blots with oat22 antibody.
(§5) Phosphorylation analysis of the D422R mutant of A610 (DR/A610). […] Wild-type (A610) and DR/A610 mutant proteins were labeled with the indicated concentrations of 8-azido-ATP, and the 8-azido-ATP labeled proteins were detected with avidin-HRP (upper panel).

[2] = target: T2, K411L AsphyA mutant (full-length) (Avena sativa, UniProt P06593, K411L); assay: as above; conditions: 5 μM 8-azido-ATP; labelling of WT AsphyA with 5 μM assumed as 100%
T2 construct: After preparing purified full-length AsphyA mutants; made in house; host or cells: Pichia pastoris GS115
T2 sequence (P06593 whole entry K411L): as the sequence (P06593 whole entry D422R) above, with K411L, R422D counted along it
Description: as §1, §2, §3, §4, §5

[3] = target: T3, T418D AsphyA mutant (full-length) (Avena sativa, UniProt P06593, T418D); assay: as above; conditions: 5 μM 8-azido-ATP; labelling of WT AsphyA with 5 μM assumed as 100%
T3 construct: After preparing purified full-length AsphyA mutants; made in house; host or cells: Pichia pastoris GS115
T3 sequence (P06593 whole entry T418D): as the sequence (P06593 whole entry D422R) above, with T418D, R422D counted along it
Description: as §1, §2, §3, §4, §5

[4] = target: T4, PAS-GAF-PHY photosensory core of AsphyA (66-610aa) (Avena sativa, UniProt P06593 66-610, phycocyanobilin chromophore assembled (chromophore-binding site C322)); assay: pull-down; GST/strep-fused interacting protein (1.0 μg) held on glutathione resin, phytochrome (1.0 μg) in solution, Pr and Pfr forms both tested; 60 min at 4 °C in pull-down buffer (100 mM Tris-HCl pH 7.8, 1 mM EDTA, 150 mM NaCl, 100 μg/ml BSA); western blot with oat22 and anti-GST; conditions: both partners purified
T4 construct: Avena sativa phytochrome A, residues 66-610 (PAS-GAF-PHY photosensory core); also called the photosensory core; source: phycocyanobilin added in vitro
T4 sequence (looked up): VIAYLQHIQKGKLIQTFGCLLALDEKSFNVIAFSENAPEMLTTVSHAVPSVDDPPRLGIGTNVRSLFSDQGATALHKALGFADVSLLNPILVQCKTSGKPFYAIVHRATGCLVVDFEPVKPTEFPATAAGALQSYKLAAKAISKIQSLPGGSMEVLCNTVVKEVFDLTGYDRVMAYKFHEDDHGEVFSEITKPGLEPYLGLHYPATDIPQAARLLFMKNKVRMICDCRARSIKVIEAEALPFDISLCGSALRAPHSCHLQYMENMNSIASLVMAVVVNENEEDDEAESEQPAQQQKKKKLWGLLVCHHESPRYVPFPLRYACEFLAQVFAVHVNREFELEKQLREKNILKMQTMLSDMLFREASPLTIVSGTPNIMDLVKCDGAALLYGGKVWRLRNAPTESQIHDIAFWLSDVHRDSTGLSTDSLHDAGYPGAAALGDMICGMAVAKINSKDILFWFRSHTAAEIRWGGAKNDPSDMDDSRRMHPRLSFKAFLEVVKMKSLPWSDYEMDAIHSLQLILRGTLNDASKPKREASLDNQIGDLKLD

Molecule: 8-N3-ATP-biotin-long chain-hydrazone [8-azido-ATP]
8-azido-ATP labelling, % of the WT AsphyA [1]: ~5%
8-azido-ATP labelling, % of the WT AsphyA [2]: ~30%
8-azido-ATP labelling, % of the WT AsphyA [3]: ~17%

binding result [4]: binds
B1: GST/strep-fused PIF3 (natural protein, UniProt O80536 1-524, looked up)
chain: MPLFELFRLTKAKLESAQDRNPSPPVDEVVELVWENGQISTQSQSSRSRNIPPPQANSSRAREIGNGSKTTMVDEIPMSVPSLMTGLSQDDDFVPWLNHHPSLDGYCSDFLRDVSSPVTVNEQESDMAVNQTAFPLFQRRKDGNESAPAASSSQYNGFQSHSLYGSDRARDLPSQQTNPDRFTQTQEPLITSNKPSLVNFSHFLRPATFAKTTNNNLHDTKEKSPQSPPNVFQTRVLGAKDSEDKVLNESVASATPKDNQKACLISEDSCRKDQESEKAVVCSSVGSGNSLDGPSESPSLSLKRKHSNIQDIDCHSEDVEEESGDGRKEAGPSRTGLGSKRSRSAEVHNLSERRRRDRINEKMRALQELIPNCNKVDKASMLDEAIEYLKSLQLQVQIMSMASGYYLPPAVMFPPGMGHYPAAAAAMAMGMGMPYAMGLPDLSRGGSSVNHGPQFQVSGMQQQPVAMGIPRVSGGGIFAGSSTIGNGSTRDLSGSKDQTTTNNNSNLKPIKRKQGSSDQFCGSS
notes: Probably Arabidopsis PIF3, as PIF1 and PIF4 are called Arabidopsis; not shown: GST, N-terminal, kept
